We go through six molecules from publication PMC7546081, “A Kunitz-type peptide from Dendroaspis polylepis venom as a simultaneous inhibitor of serine and cysteine proteases” (The Journal of Venomous Animals and Toxins Including …, 2020).

Where two headings read alike, the source gives them in different places. Bridge positions count the residues as written; N and C are the ends. Square brackets hold non-standard residues; d marks the D form. Peptide text beside a SMILES is read from it. * marks the point of attachment. EDDnp = O=[N+]([O-])c1ccc(NCCN*)c([N+](=O)[O-])c1; AMC = Cc1cc(=O)oc2cc(N*)ccc12; 2Abz = Nc1ccccc1C(=O)O; Cbz = O=C(OCc1ccccc1)*

Data set [1] has as its target T1, elastase-1 (Sus scrofa, UniProt P00772).
T1 construct: purchased Sigma-Aldrich
Briefly: Kinetic characterization of elastase-1 inhibition (Michaelis-Menten, Dixon plot). Format: biochemical. Particulars: for Elastase inhibition: data not shown. The procedure:
To determine the inhibition constant (Ki ) of the peptide, firstly the Michaelis-Menten constant (Km ) for the Abz-FRSSRQ-EDDnp hydrolysis by elastase-1 was obtained. For this, the concentrations of 2.5 µM, 5.0 µM, 10.0 µM, 15.0 µM, 25.0 µM and 50.0 µM of the substrate were used, in Tris 50 mM, NaCl 50 mM pH 8.0. Initial rates were determined at an enzyme concentration (100 ng) that would hydrolyze less than 10% of the substrate. The kinetic parameters (Km and Vmax ) were calculated by Michaelis-Menten equation using the Grafit 5 software (Erithacus Software, West Sussex, UK), as previously described. All experiments were performed in duplicate.
The Kunitz-type peptide quantification was determined by the BCA method using insulin as standard (5 µg/µL, 10 µg/µL, 25 µg/µL, 50 µg/µL e 100 µg/µL). To determine the mechanism of action of the Kunitz-type inhibitor, two concentrations of Abz-FRSSRQ-EDDnp, 6.8 µM and 3.4 µM, and two concentrations of the purified peptide, 0.63 µM and 0.94 µM, were utilized. For each substrate concentration it was made a control test (absence of the peptide). The assays were performed in duplicate and during all experiment the consumption of substrate was maintained under 10%. The reactions were monitored in the fluorimeter, as described above, and were analyzed in the Grafit 5 software (Erithacus Software, West Sussex, UK). The mechanism and the inhibition constants were determined through the Dixon plot (1/V x [I]) equation [20]. The plot was made in the software GraphPad Prism 5.

Data set [2] deals with T1, elastase-1. Briefly: Stability test of peptides against hydrolysis by elastase-1 (RP-HPLC). The format is in vitro ADME. Particulars: data not shown; for Stability against hydrolysis by elastase-1: peptide 50 mM (so in the source), elastase-1 300 ng, Tris 50 mM, NaCl 50 mM pH 8.0, 37 °C, 4 hours and overnight, C18 RP-HPLC, UV 214 nm, duplicate. The method, then: Samples containing only the synthetic peptides were used as negative control. After incubation, samples were analyzed, in duplicate by reverse phase chromatography on HPLC, using a Shim-pack C-18 column in the same conditions described above.

For data set [3], the target named is T2, recombinant human cathepsin L (Homo sapiens, UniProt P07711).
T2 construct: purchased R&D systems
Put plainly: Stability test of peptides against hydrolysis by cathepsin L (RP-HPLC). The format is in vitro ADME. Particulars: cathepsin L 10 ng, NaCl 200 mM, EDTA 5 mM, DTT 6.25 mM pH 5.5; 37 °C; 4 hours and overnight (16 hours); C18 RP-HPLC, UV 214 nm; duplicate; data not shown. The procedure: The synthetic peptides PEP1 and PEP2 (50 mM) were incubated with elastase-1 (300 ng), in Tris 50 mM, NaCl 50 mM pH 8.0 buffer, and cathepsin L (10 ng), in 50 mM, NaCl 200 mM, EDTA 5 mM, DTT 6.25 mM pH 5.5 buffer, at 37 °C in two different time intervals, 4 hours and overnight. Samples containing only the synthetic peptides were used as negative control. After incubation, samples were analyzed, in duplicate by reverse phase chromatography on HPLC, using a Shim-pack C-18 column in the same conditions described above.
Target sequence in this assay (P07711 114-333): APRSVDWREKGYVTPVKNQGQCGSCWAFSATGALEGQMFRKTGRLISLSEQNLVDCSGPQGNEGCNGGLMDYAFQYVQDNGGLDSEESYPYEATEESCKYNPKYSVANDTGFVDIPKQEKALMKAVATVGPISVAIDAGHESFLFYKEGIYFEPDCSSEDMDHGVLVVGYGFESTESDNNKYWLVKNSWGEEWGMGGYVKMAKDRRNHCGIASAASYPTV

Data set [4] addresses T2, recombinant human cathepsin L. Briefly: Kinetic characterization of cathepsin L inhibition (Michaelis-Menten, Dixon plot). The format is biochemical. The method, then:
To obtain the Michaelis-Menten constant (Km ) of the Z-FR-MCA hydrolysis by cathepsin L (1 ng), 1 µM, 2.5 µM, 5.0 µM, 7.5 µM, 12.5 µM, 15 µM, 20 µM concentrations of Z-FR-MCA substrate were tested in 50 mM, NaCl 200 mM, EDTA 5 mM, DTT 6.25 mM pH 5.5 buffer (final volume of 100 µL).The reactions were continuously monitored (fluorescence at λEM 480 nm and λEX 360 nm) in a fluorimeter (425-301 Hidex, Finland), as described. The maximum speed (Vmax ) and the Km were obtained in the Grafit 5 software. All experiments were performed in duplicate. To determine the mechanism of inhibition and the inhibition constant (Ki ) of inhibitor PEP2, two concentrations of the Z-FR-MCA, 5.2 µM (2 Km ) and 7.8 (3 Km ), and three concentrations of the inhibitor PEP2, 1 µM, 2.5 µM and 5 µM, were used. Samples without PEP2 for each substrate concentration were utilized. The experiments were carried out in duplicates and the consumption of the substrate was maintained under 10%. The results were analyzed in the Grafit 5 software. The mechanism and the inhibition constants were determined through the Dixon plot (1/V x [I]) equation [20], using the software GraphPad Prism 5.

The subject of the next data set is trypsin. Briefly: Trypsin inhibition. The format is biochemical. The note with it: data not shown.
The subject of another data set is chymotrypsin. Put plainly: Chymotrypsin inhibition. The note with it: data not shown. Format: biochemical.
The next data set concerns potassium channel. Particulars: read-out: Potassium channel blocker activity IC50; cited from earlier work.
Data set [5] addresses T3, pancreatic elastase (EC 3.4.21.36) (UniProt P00772 27-266).
T3 construct: also called elastase-1; source: bought: Sigma-Aldrich
Put plainly: enzyme inhibition kinetics (fluorimetric, Dixon plot); elastase-1 (100 ng) with the FRET substrate Abz-FRSSRQ-EDDnp at 3.4 and 6.8 µM, purified peptide at 0.63 and 0.94 µM; Tris 50 mM, NaCl 50 mM, pH 8.0, 37 °C; duplicates; mechanism found uncompetitive. The note with it: both partners purified.

T1 sequence (P00772 27-266): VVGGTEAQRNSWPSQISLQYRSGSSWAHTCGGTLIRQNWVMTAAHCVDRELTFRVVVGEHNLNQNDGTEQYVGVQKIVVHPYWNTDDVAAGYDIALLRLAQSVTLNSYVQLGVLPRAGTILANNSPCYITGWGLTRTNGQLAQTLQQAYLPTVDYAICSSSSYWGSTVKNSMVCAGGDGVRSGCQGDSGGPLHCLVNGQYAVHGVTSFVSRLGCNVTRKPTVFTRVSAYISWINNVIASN
T3 sequence (P00772 27-266): as above

For the molecule `N=C(N)NCCC[C@H](NC(=O)[C@H](Cc1ccccc1)NC(=O)c1ccccc1N)C(=O)N[C@@H](CO)C(=O)N[C@@H](CO)C(=O)N[C@@H](CCCNC(=N)N)C(=O)N[C@@H](CCC(N)=O)C(=O)NCCNc1ccc([N+](=O)[O-])cc1[N+](=O)[O-]` [Abz-FRSSRQ-EDDnp, reference compound] (H-[2Abz]FRSSRQ-EDDnp), the Michaelis-Menten constant (Km) at elastase-1 [1] (Michaelis-Menten fit, Std. Error 2.2721 in its own column, read-out: Km, fit parameter value (Additional file 4A), elastase-1) turned out to be 10.6 µM; on elastase-1 [1] (substrate 2.5-50.0 µM, elastase-1 100 ng, Tris 50 mM, NaCl 50 mM pH 8.0, Grafit 5, duplicate, read-out: Michaelis-Menten constant (Km) of substrate cleavage by elastase-1), 10.7 µM.
For `C[C@@H](O)[C@H](NC(=O)[C@H](Cc1ccccc1)NC(=O)CNC(=O)[C@H](CCC(=O)O)NC(=O)[C@H](CS)NC(=O)[C@H](CCC(N)=O)NC(=O)[C@H](CCCCN)NC(=O)[C@@H](N)CCCCN)C(=O)N[C@@H](Cc1c[nH]c2ccccc12)C(=O)N[C@@H](CO)C(=O)NCC(=O)N[C@@H](CS)C(=O)NCC(=O)NCC(=O)N[C@@H](CC(N)=O)C(=O)N[C@@H](CO)C(=O)O` [PEP1] (H-KKQCEGFTWSGCGGNS-OH), the “Stability against hydrolysis by elastase-1” value on elastase-1 [2] is on record as “not stable”. Also, the “Stability against hydrolysis by cathepsin L” value in data set [3] is reported as “hydrolyzed”.
Turning to `CC[C@H](C)[C@@H]1NC(=O)[C@H](CCCCN)NC(=O)[C@H](CCC(N)=O)NC(=O)[C@H](Cc2ccc(O)cc2)NC(=O)[C@@H](NC(=O)[C@H](CCCNC(=N)N)NC(=O)CNC(=O)[C@@H]2CCCN2)CSSC[C@@H](C(=O)NCC(=O)NCC(=O)O)NC(=O)CNC(=O)[C@H](CO)NC(=O)[C@H](Cc2c[nH]c3ccccc23)NC(=O)[C@H]([C@@H](C)O)NC(=O)[C@H](Cc2ccccc2)NC(=O)CNC(=O)[C@H](CCC(=O)O)NC(=O)[C@H](C(C)C)NC(=O)[C@H](CCC(N)=O)NC(=O)[C@H](CCCCN)NC(=O)[C@H](CCCCN)NC(=O)[C@H](CCCCN)NC(=O)[C@H](CCC(N)=O)NC(=O)[C@H](CC(N)=O)NC(=O)[C@H](Cc2ccc(O)cc2)NC(=O)[C@H](Cc2ccc(O)cc2)NC(=O)[C@H](Cc2ccccc2)NC(=O)[C@H](C)NC(=O)[C@@H]2CCCN2C1=O` [PEP2] (H-PGRCYQKIPAFYYNQKKKQVEGFTWSGCGG-OH; disulfide 4-28), the Ki in data set [4] (Dixon plot, Z-FR-MCA 5.2 and 7.8 µM (2 and 3 Km), PEP2 0, 1.0, 2.5 and 5.0 µM, cathepsin L 1 ng, pH 5.5 buffer with DTT 6.25 mM, duplicate, read-out: Inhibition constant (Ki) for cathepsin L) came out at 1.96 µM. At elastase-1 [2], the “Stability against hydrolysis by elastase-1” value is on record as “not stable”. Moreover, the “Stability against hydrolysis by cathepsin L” value in data set [3] is on record as “not degraded”.
Cbz-Phe-Arg-{AMC}: the Km was 2.65 µM in data set [4] (Michaelis-Menten fit, Std. Error 0.4867 in its own column, read-out: Km, fit parameter value (Additional file 4B), cathepsin L) and 2.65 µM in data set [4] (substrate 1-20 µM, cathepsin L 1 ng, pH 5.5 buffer, Grafit 5, duplicate, read-out: Michaelis-Menten constant (Km) of substrate hydrolysis by cathepsin L).
Consider “Kunitz-type serine protease inhibitor homolog dendrotoxin I (QPLRKLCILHRNPGRCYQKIPAFYYNQKKKQCEGFTWSGCGGNSNRFKTIEECRRTCIRK) [Kunitz-type peptide]”, for which the Inhibition of trypsin result in the data set with trypsin was “no other serine protease inhibitions”. Further, the “Stability on incubation with elastase-1 (substrate or not)” value with elastase-1 [2] (overnight incubation with elastase-1) is “not an elastase-1 substrate”. In addition, in the data set with chymotrypsin, the Inhibition of chymotrypsin entry is “no other serine protease inhibitions”. Also, in the data set with elastase-1 [1] (Dixon plot (1/V versus [I]), parallel lines), the “Mechanism of inhibition of elastase-1” value was “uncompetitive inhibitor”. Besides, the Elastase inhibition result in the data set with elastase-1 [1] (peptide 1.26 µM) and with elastase-1 [1] (peptide 3.52 µM) was “above 70%” each time. Also, the IC50 in the data set with potassium channel is 0.00013 to 0.05 µM.

B1: Kunitz-type serine protease inhibitor homolog dendrotoxin I (peptide)
chain: QPLRKLCILHRNPGRCYQKIPAFYYNQKKKQCEGFTWSGCGGNSNRFKTIEECRRTCIRK
notes: also called Kunitz-type peptide; Kunitz peptide
Regarding B1, the Ki in data set [5] amounted to 8 µM.

Usually Km stands for the substrate concentration at which the rate is half of its maximum. In general, Ki refers to a dissociation constant, usually derived from enzyme kinetics or from competition with a known ligand. What is called IC50 is the concentration that gives 50% inhibition.
